Experimental data from US9789086B1, “N-(5-arylamido-2-methylphenyl)-5-methylisooxazole-4-carboxamide deravative, pharmaceutical acceptable salt thereof, method for preparation therof and FMS kinase inhibitor comprising the same as anactive ingredient” (Industry-University Cooperation Foundation Hanyang …, priority 2014, dated 2017).

Experiments:
A375P cell line = A375P cell line proliferation inhibitory activity (MTT assay); type: cell-based; conditions: A375P cells, 48 hours treatment
Description: A375P cell lines were purchased from ATCC and cultured in a DMEM culture medium (containing 10% FBS and 1% penicillin/streptomycin) in the presence of 5% CO2 at 37° C. The cultured A375P cell lines were taken from culture substrate with 0.05% trypsin-0.02% EDTA and plated at a density of 5×10^3 cells per well in 96-well plates.
(§1) In order to measure cell viability, MTT [3-(4,5-dimethylthiazole-2-yl)-2,5-diphenyltetrazolium bromide] activity assay method (Thiazolyl Blue Tetrazolium Bromide, Sigma Aldrich) was used. Cell lines were cultured in 96-well plates for 24 hours and treated with the compounds of Examples previously prepared. For the compound treatment, 10 mM stocks were prepared, serially diluted in DMSO and added by 0.5 μL at 8 points (final concentration of 0.5%). The cell lines in plates treated with the compounds was cultured for 48 hours, then 15 μL of dye was added to each well and cultured for 4 hours. Then, 100 μL of DMSO solvent was added to each well, and the formed solid was dissolved to measure the absorbance. The absorbance was read at a wavelength of 570 nm using EnVision 2103, and the GI 50 value was calculated using GraphPad Prism 4.0 software, and the results are shown in Table 1 below.

U937 cell line = U937 cell line proliferation inhibitory activity (MTT assay); type: cell-based; conditions: Homo sapiens, U-937, U937 cells
Description: as §1
U937 cell lines were purchased from ATCC and cultured in a RPMI culture medium (containing 10% FBS, 1% penicillin/streptomycin and 25 mM HEPES) in the presence of 5% CO2 at 37° C. The cell line proliferation inhibitory activity for Examples previously prepared was measured using the same MTT activity assay method as the A375P cell line proliferation inhibitory activity assay in Experimental Example 1.

FMS = target: T1, FMS (Homo sapiens, UniProt P07333); experiment: FMS inhibitory activity (Reaction Biology Kinase profiling, IC50 profiler express); type: biochemical
T1 construct: purchased Reaction Biology Corporation
Description: The inhibitory activity of FMS at a concentration of 10 μM of the compound prepared in Example 5 was measured using Kinase profiling services (IC 50 profiler express) offered by Reaction Biology Corporation.

T1 sequence (P07333 20-972): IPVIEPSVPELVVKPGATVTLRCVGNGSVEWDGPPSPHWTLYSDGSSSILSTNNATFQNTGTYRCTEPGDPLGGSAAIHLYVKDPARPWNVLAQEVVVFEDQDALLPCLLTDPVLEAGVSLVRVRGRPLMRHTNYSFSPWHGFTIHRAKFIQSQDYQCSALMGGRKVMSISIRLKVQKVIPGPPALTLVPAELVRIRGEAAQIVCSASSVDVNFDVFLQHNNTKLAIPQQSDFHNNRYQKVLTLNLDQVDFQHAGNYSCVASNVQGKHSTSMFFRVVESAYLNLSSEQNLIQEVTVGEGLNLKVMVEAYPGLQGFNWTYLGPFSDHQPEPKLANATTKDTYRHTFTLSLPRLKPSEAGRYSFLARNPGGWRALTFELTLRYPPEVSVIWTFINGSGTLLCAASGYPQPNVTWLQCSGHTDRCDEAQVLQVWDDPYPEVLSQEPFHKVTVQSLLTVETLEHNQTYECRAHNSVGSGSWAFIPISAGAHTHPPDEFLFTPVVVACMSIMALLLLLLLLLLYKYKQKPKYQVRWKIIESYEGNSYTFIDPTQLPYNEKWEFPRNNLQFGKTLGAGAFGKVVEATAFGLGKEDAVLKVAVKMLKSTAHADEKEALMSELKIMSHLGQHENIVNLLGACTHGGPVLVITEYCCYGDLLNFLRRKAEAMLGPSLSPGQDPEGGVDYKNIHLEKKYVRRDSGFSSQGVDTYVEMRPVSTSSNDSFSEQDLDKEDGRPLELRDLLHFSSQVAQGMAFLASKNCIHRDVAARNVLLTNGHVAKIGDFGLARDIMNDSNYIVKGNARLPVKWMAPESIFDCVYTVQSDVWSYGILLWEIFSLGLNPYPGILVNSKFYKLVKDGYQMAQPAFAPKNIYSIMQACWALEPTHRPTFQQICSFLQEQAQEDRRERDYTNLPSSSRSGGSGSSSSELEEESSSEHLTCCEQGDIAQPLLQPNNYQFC

SMILES	GI50 (A375P cell line) [µM]	GI50 (U937 cell line) [µM]	inhibition at 10 µM (FMS; compound concentration 10 μM, read-out: FMS activity inhibited) [%]	IC50 (FMS; sequentially decreasing concentration, read-out: concentration that inhibits FMS activity by 50% (IC50)) [µM]
Cc1cc(NC(=O)Nc2ccccc2F)ccc1NC(=O)c1cnoc1C [Example 38, N-(4-(3-(2-fluorophenyl)ureido)-2-methylphenyl)-5-methylisoxazole-4-carboxamide]	10 to 30	10 to 30		
Cc1cc(NC(=O)Nc2ccc(Cl)cc2)ccc1NC(=O)c1cnoc1C [Example 39, N-(4-(3-(4-chlorophenyl)ureido)-2-methylphenyl)-5-methylisoxazole-4-carboxamide]	10 to 30	10 to 30		
Cc1cc(NC(=O)Nc2cc(Cl)cc(Cl)c2)ccc1NC(=O)c1cnoc1C [Example 41, N-(4-(3-(3,5-dichlorophenyl)ureido)-2-methylphenyl)-5-methylisoxazole-4-carboxamide]	10 to 30	10 to 30		
CCCS(=O)(=O)Nc1ccc(C)c(NC(=O)c2cnoc2C)c1 [Example 42, 5-methyl-N-(2-methyl-5-(propylsulfonamido)phenyl)isoxazole-4-carboxamide]	10 to 30	10 to 30		
CCCS(=O)(=O)Nc1ccc(NC(=O)c2cnoc2C)c(C)c1 [Example 43, 5-methyl-N-(2-methyl-4-(propylsulfonamido)phenyl)isoxazole-4-carboxamide]	10 to 30	10 to 30		
Cc1ccc(NC(=O)c2cc(N3CCOCC3)cc(C(F)(F)F)c2)cc1NC(=O)c1cnoc1C [Example 44, 5-methyl-N-(2-methyl-5-(3-morpholino-5-(trifluoromethyl)benzamido)phenyl)isoxazole-4-carboxamide]	10 to 30	< 1		

The next lines start with the values.

GI50 (A375P cell line) [µM]	GI50 (U937 cell line) [µM]	inhibition at 10 µM (FMS; compound concentration 10 μM, read-out: FMS activity inhibited) [%]	IC50 (FMS; sequentially decreasing concentration, read-out: concentration that inhibits FMS activity by 50% (IC50)) [µM]	SMILES
10 to 30	10 to 30	98.7	0.00995	Cc1ccc(NC(=O)c2ccc(Cl)c(C(F)(F)F)c2)cc1NC(=O)c1cnoc1C [Example 5, N-(5-(4-chloro-3-(trifluoromethyl)benzamido)-2-methylphenyl)-5-methylisoxazole-4-carboxamide]
10 to 30	1 to 10			Cc1ccc(NC(=O)Nc2ccc(Cl)c(Cl)c2)cc1NC(=O)c1cnoc1C [Example 34, N-(5-(3-(3,4-dichlorophenyl)ureido)-2-methylphenyl)-5-methylisoxazole-4-carboxamide]
10 to 30	10 to 30			Cc1cc(NC(=O)Nc2ccc(Cl)c(C(F)(F)F)c2)ccc1NC(=O)c1cnoc1C [Example 35, N-(4-(3-(4-chloro-3-(trifluoromethyl)phenyl)ureido)-2-methylphenyl)-5-methylisoxazole-4-carboxamide]
10 to 30	10 to 30			Cc1cc(NC(=O)Nc2cccc(C(F)(F)F)c2)ccc1NC(=O)c1cnoc1C [Example 36, 5-methyl-N-(2-methyl-4-(3-(3-(trifluoromethyl)phenyl)ureido)phenyl)isoxazole-4-carboxamide]
10 to 30	10 to 30			Cc1cc(NC(=O)Nc2cccc(Cl)c2)ccc1NC(=O)c1cnoc1C [Example 37, N-(4-(3-(3-chlorophenyl)ureido)-2-methylphenyl)-5-methylisoxazole-4-carboxamide]
1 to 10	10 to 30			Cc1cc(NC(=O)Nc2ccc(Cl)c(Cl)c2)ccc1NC(=O)c1cnoc1C [Example 40, N-(4-(3-(3,4-dichlorophenyl)ureido)-2-methylphenyl)-5-methylisoxazole-4-carboxamide]
